The values that follow come from patent US8846949B2, “Pyrrolopyrazoles as N-type calcium channel blockers” (Janssen Pharmaceutica NV, priority 2012, dated 2014).

Read-outs that look alike come from different tables or passages of the source.

Assay [1] deals with T1, N-type calcium channel α1B (Cav2.2), β3 and α2δ subunits (Homo sapiens, UniProt Q00975).
T1 construct: expressed in transfected cells
As to the kind of experiment: Functional assay, antagonism of N-type calcium channel (FDSS calcium mobilization response to KCl depolarization). Format: cell-based. Conditions: for IC50: HEK stable cell line, 50 mM KCl depolarization, six-point concentration-response; for inhibition at 0.33 µM: 0.33 μM compound, FDSS, 50 mM KCl. The method, boiled down: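 HEK cells stably co-expressing α1B (Cav2.2), β3 and α2δ subunits were loaded with calcium dye, preincubated with compound for 5 min, then depolarized with 50 mM KCl and read for 3 min by FDSS fluorescence. IC50 from six-point curves, normalized to KCl maximum and buffer minimum.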

The next assay has as its target T2, N-type calcium channel (Homo sapiens, UniProt Q00975).
T2 construct: expressed in transfected cells
The assay is described as follows: Automated electrophysiology assay (QPatch-HT whole-cell patch clamp). Format: cell-based. As to the method:
Cells were grown in T175 flasks to 50%-90% confluence. At the time of use, cells were enzymatically treated with Detachin (Genlantis, San Diego, Calif. USA), centrifuged, rinsed, and resuspended in 293 SFM II media (Life Technologies, Grand Island, N.Y. U.S.A.) supplemented with 25 mM HEPES (Sigma-Aldrich, St. Louis, Mo. U.S.A.) to a concentration of 2-3×10^6 cells/mL. Cells were added to the automated cell preparation station on the QPatch-HT (Sophion Biosciences, North Brunswick, N.J. U.S.A.), and following a 10- to 30-min recovery period with gentle stirring, the assay protocol was initiated. During the automated cell preparation, cells were collected, centrifuged and resuspended in an extracellular (EC) solution containing 132 mM NaCl, 1.8 mM CaCl2, 5.4 mM KCl, 0.8 mM MgCl2, 10 mM glucose, and 10 mM HEPES (pH=7.4), adjusted with sucrose to approximately 315 m0sm. The QPlate was primed with an intracellular solution containing 135 mM CsCl, 10 mM EGTA, 4 MgATP, 0.3 NaGTP, and 20 mM HEPES (pH=7.2), adjusted to approximately 290 m0sm with deionized water and the EC solution. Cells were added to the prepared QPlate wells by robotic pipettes of the QPatch-HT.
For cells determined to be in stable whole-cell patch clamp, the EC solution was replaced with a barium (Ba)/triethylammonium (TEA) solution containing 140 mM TEA-Cl, 10 mM BaCl2, 0.8 mM MgCl2, 10 mM glucose and 10 mM HEPES (pH=7.4). High (40 mM) BaCl2 concentrations were made with adjustments to TEA-C1 (90 mM) to maintain the osmolarity. From a resting potential of −80 mV, a train of depolarizing pulses (15 pulses at 5 Hz, +20 mV) was delivered to the cell once every 30 sec for eight trains (4 min total), and the resulting currents were measured during a control period (no compound). This protocol was repeated for each subsequent addition of control buffer with or without compound (three periods total, each with four trains). The current generated in the 1st and 15th pulses of the last train of each period in the presence of each drug concentration was normalized to the current generated during the control period at the respective pulses (representing low- and high-frequency stimulation, respectively). Data from both the second and third drug application periods were analyzed for each cell. A final addition of Ba/TEA solution containing 60-100 μM CdCl2 was made to block all N-type current and to “zero” the currents for each cell. All buffer/compound additions were made using a “spitting” feature of the QPatch-HT, which added three repetitions of 5 μL solution at the beginning of each recording period.
To examine closed-state inactivation, cells were subjected to a channel-activating 50-msec depolarizing step pulse from −80 to +10 mV, followed by a 5-sec nonactivating step to voltages ranging from −130 to −60 mV in 10 mV increments and then a 50-ms step from −80 to +10 mV to assess the remaining current. Currents from the activating voltage pulse were normalized to the peak value of the test pulse following the −130 mV step and fit to a Boltzman equation to obtain the V1/2. Roscovitine (Sigma-Aldrich) was prepared as a 100 mM stock in dimethyl sulfoxide and diluted to the indicated working concentrations. […]. Compounds of Formula (I) were diluted first into dimethyl sulfoxide and then into 10% pluronic F-127 in water (Life Technologies), sonicated for 1 min and diluted into EC buffer. Vehicle controls were run in parallel in all experiments.
Unless otherwise indicated, statistics for comparing among electrophysiological results utilized a one-way analysis of variance with Fisher's least squares determination test for pair-wise comparison.

The mark [2] stands for this setting: 1 μM, high frequency (15th pulse of train, 5 Hz), read-out: QPatch at High Frequency % Inhibition.
[3] abbreviates: 1 μM, low frequency (1st pulse of train), read-out: QPatch at Low Frequency % Inhibition.
Where [4] appears, read: high frequency (15th pulse of train, 5 Hz), read-out: QPatch at High Frequency % Inhibition.
Setting [5] is: low frequency (1st pulse of train), read-out: QPatch at Low Frequency % Inhibition.

T1 sequence (Q00975 whole entry): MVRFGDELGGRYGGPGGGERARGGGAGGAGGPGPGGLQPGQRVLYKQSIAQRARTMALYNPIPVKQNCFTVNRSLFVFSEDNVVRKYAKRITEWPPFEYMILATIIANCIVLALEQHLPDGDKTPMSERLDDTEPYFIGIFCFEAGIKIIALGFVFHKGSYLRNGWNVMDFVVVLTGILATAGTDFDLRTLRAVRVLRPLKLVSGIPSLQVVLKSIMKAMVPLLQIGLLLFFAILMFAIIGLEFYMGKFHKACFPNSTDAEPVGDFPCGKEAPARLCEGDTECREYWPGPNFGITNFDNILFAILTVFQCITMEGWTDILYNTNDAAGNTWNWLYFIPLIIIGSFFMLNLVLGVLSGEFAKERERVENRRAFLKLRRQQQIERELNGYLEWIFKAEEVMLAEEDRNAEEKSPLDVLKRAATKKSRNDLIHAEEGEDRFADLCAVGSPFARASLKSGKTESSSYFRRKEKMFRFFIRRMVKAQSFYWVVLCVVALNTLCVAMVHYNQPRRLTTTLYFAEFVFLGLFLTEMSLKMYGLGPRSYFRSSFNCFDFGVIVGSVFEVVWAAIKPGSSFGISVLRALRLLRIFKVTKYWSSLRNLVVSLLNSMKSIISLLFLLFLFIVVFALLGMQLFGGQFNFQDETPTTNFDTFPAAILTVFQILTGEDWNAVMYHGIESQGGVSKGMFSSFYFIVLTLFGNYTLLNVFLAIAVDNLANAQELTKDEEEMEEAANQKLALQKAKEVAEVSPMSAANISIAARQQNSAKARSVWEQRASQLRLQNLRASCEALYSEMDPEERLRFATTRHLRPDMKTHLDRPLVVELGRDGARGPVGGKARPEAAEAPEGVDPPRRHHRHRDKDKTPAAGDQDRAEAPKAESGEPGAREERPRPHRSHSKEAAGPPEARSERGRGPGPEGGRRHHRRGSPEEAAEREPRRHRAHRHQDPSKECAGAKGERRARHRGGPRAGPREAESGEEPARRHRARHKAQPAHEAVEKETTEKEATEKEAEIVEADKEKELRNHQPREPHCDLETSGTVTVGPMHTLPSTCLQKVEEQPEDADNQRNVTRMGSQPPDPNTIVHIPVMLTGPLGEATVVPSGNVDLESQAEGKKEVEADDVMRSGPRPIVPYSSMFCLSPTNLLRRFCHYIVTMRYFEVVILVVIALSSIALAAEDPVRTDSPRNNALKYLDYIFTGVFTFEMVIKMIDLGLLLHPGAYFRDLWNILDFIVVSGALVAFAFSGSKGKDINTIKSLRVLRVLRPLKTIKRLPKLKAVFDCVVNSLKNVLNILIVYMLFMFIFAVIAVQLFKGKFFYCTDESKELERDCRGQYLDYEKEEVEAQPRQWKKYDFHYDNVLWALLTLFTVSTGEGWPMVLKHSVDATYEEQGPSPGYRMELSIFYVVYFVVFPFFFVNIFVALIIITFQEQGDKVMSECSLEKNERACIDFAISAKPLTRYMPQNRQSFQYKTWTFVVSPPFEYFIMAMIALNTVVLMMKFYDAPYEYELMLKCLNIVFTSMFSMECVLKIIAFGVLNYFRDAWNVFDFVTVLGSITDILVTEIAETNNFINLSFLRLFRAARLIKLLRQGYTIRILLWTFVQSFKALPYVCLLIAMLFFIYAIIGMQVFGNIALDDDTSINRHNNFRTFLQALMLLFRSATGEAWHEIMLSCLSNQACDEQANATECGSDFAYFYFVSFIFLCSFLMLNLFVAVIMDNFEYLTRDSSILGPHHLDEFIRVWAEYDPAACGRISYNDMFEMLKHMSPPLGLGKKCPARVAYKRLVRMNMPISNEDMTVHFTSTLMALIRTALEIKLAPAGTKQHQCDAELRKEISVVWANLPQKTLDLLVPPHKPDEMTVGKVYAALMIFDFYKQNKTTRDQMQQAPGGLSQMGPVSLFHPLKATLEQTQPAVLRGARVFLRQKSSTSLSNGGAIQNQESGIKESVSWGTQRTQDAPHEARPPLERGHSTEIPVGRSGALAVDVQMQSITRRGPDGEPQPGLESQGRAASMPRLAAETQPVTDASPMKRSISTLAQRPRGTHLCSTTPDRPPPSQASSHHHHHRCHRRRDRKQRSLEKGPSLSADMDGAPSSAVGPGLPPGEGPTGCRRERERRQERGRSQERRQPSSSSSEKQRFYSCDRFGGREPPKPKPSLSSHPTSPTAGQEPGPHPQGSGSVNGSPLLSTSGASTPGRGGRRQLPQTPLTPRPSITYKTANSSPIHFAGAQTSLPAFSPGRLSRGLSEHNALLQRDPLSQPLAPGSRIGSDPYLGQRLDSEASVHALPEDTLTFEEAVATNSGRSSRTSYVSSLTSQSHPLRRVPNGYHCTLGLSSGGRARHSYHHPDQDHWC
T1 sequence (P54284 whole entry partner): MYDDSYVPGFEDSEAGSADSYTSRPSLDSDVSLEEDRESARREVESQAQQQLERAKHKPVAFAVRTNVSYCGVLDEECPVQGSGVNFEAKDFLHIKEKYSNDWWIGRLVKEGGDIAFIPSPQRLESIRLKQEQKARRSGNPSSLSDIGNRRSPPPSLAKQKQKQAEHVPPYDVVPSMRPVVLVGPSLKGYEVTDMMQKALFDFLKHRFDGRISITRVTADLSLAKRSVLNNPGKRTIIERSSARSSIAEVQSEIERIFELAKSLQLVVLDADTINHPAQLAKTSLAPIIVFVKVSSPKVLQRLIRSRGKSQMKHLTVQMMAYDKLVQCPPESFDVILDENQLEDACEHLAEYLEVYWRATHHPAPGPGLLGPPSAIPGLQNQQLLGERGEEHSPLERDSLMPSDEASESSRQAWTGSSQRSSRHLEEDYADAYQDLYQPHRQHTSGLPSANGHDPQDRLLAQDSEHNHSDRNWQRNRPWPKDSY
T1 sequence (P54289 25-956 partner limits assumed): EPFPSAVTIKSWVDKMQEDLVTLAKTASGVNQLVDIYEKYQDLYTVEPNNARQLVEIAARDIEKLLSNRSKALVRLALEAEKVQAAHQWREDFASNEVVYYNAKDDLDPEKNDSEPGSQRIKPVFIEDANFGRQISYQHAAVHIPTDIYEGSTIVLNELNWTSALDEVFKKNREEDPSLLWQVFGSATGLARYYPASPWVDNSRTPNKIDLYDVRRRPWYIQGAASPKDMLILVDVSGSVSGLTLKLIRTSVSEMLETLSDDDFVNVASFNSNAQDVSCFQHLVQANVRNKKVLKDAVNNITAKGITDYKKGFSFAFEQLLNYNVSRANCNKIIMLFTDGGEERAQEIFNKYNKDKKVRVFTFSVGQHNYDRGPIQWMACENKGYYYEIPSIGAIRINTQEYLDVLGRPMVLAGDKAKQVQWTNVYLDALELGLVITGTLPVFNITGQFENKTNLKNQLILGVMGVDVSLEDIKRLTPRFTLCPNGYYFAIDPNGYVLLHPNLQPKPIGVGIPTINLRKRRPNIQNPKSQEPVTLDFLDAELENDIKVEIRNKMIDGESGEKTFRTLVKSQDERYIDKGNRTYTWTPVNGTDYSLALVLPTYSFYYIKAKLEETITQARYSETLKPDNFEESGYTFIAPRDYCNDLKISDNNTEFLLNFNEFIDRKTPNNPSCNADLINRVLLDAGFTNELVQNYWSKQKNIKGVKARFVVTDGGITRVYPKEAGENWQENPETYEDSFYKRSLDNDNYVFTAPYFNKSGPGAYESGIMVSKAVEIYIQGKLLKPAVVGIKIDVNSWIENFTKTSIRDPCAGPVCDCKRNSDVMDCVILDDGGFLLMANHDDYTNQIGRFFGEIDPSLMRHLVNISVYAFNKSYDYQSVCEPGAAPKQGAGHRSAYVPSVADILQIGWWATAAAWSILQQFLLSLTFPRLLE
T1 sequence (P54289 957-1103 partner limits assumed): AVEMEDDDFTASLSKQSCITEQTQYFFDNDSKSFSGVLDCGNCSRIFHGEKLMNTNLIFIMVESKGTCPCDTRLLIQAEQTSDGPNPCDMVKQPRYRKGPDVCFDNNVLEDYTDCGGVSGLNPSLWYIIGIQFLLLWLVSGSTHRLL
T2 sequence (Q00975 whole entry): as the sequence (Q00975 whole entry) above
T2 sequence (P54284 whole entry partner): as the sequence (P54284 whole entry partner) above
T2 sequence (P54289 25-956 partner limits assumed): as the sequence (P54289 25-956 partner limits assumed) above
T2 sequence (P54289 957-1103 partner limits assumed): as the sequence (P54289 957-1103 partner limits assumed) above

On to `COc1ccccc1-n1nc2c(c1-c1ccc(Cl)cc1)CN(C(=O)OC(C)(C)C)C2` [Cpd 28, tert-Butyl 3-(4-chlorophenyl)-2-(2-methoxyphenyl)-2,6-dihydropyrrolo[3,4-c]pyrazole-5(4H)-carboxylate], for which the concentration for half-maximal inhibition (IC50) in assay [1] is 0.073 µM. For the same compound, the values for the inhibition at 1 µM on N-type calcium channel (read-out: QPatch at High Frequency % Inhibition) and at N-type calcium channel (read-out: QPatch at Low Frequency % Inhibition) were 52% and 25%, respectively.
For the compound `CC(C)(C)OC(=O)NCC(=O)N1Cc2nn(-c3ccccc3OC(F)(F)F)c(-c3ccc(Cl)cc3)c2C1` [Cpd 22, tert-Butyl{2-[3-(4-chlorophenyl)-2-[2-(trifluoromethoxy)phenyl]-2,6-dihydropyrrolo[3,4-c]pyrazol-5(4H)-yl]-2-oxoethyl}carbamate], the IC50 in assay [1] is 0.24 µM. Moreover, the inhibition at 1 µM on N-type calcium channel (setting [2]) came out at 28%; on N-type calcium channel (setting [3]) it was 13%.
Regarding `CC(C)S(=O)(=O)N1Cc2nn(-c3ccccc3OC(F)(F)F)c(-c3ccc(Cl)cc3)c2C1` [Cpd 35, 3-(4-Chlorophenyl)-5-[(1-methylethyl)sulfonyl]-2-[2-(trifluoromethoxy)phenyl]-2,4,5,6-tetrahydropyrrolo[3,4-c]pyrazole], the IC50 in assay [1] was 0.027 µM. In addition, the inhibition at 0.25 µM on N-type calcium channel (setting [4]) was 42%; on N-type calcium channel (setting [5]), 22%.
Turning to `COc1ccccc1-n1nc2c(c1-c1ccc(Cl)cc1)CN(S(=O)(=O)C(C)C)C2` [Cpd 31, 3-(4-Chlorophenyl)-2-(2-methoxyphenyl)-5-[(1-methylethyl)sulfonyl]-2,4,5,6-tetrahydropyrrolo[3,4-c]pyrazole], in assay [1], the inhibition at 0.33 µM is 94% and the 50% inhibitory concentration (IC50) is 0.01 µM. At N-type calcium channel (setting [4]), the inhibition at 0.1 µM is 47%. For the same compound, the inhibition at 0.1 µM at N-type calcium channel (setting [5]) worked out at 11%.
In the case of `CCCC(C)S(=O)(=O)N1Cc2nn(-c3ccccc3OC)c(-c3ccc(Cl)cc3)c2C1` (stereo not shown) [Cpd 41, 3-(4-Chlorophenyl)-2-(2-methoxyphenyl)-5-[(1-methylbutyl)sulfonyl]-2,4,5,6-tetrahydropyrrolo[3,4-c]pyrazole], in assay [1], the inhibition at 0.33 µM is 90%. Moreover, the concentration for half-maximal inhibition (IC50) in assay [1] turned out to be 0.019 µM. Further, the inhibition at 0.1 µM at N-type calcium channel (setting [4]) stood at 40%; at N-type calcium channel (setting [5]) it was 7%. Also, the values for the inhibition at 1 µM at N-type calcium channel (setting [2]) and at N-type calcium channel (setting [3]) were 91% and 80%, respectively.
Take `COc1ccccc1-n1nc2c(c1-c1ccc(Cl)cc1)CN(S(=O)(=O)N1CCCC1)C2` [Cpd 60, 3-(4-Chlorophenyl)-2-(2-methoxyphenyl)-5-(pyrrolidin-1-ylsulfonyl)-2,4,5,6-tetrahydropyrrolo[3,4-c]pyrazole]: the IC50 in assay [1] is 0.002 µM. In addition, the inhibition at 0.1 µM stood at 44% at N-type calcium channel (setting [4]) and 29% at N-type calcium channel (setting [5]).
Turning to `CC(C)S(=O)(=O)N1Cc2nn(-c3cccc4c3OCC4)c(-c3ccc(Cl)cc3)c2C1` [Cpd 84, 3-(4-Chlorophenyl)-2-(2,3-dihydro-1-benzofuran-7-yl)-5-[(1-methylethyl)sulfonyl]-2,4,5,6-tetrahydropyrrolo[3,4-c]pyrazole], in assay [1], the inhibition at 0.33 µM amounted to 94%. Moreover, the half-maximal inhibitory concentration (IC50) in assay [1] was 0.01 µM. Moreover, the inhibition at 0.1 µM at N-type calcium channel (setting [4]) was 7%; on N-type calcium channel (setting [5]) it was -3%.
The corresponding values for `CC(C)CS(=O)(=O)N1Cc2nn(-c3cccc4c3OCO4)c(-c3ccc(Cl)cc3)c2C1` [Cpd 82, 2-(1,3-Benzodioxol-4-yl)-3-(4-chlorophenyl)-5-[(2-methylpropyl)sulfonyl]-2,4,5,6-tetrahydropyrrolo[3,4-c]pyrazole] are 87%, 0.028 µM, 15% and 4%.
The like results for `CC1CCN(S(=O)(=O)N2Cc3nn(-c4cccc5c4OCO5)c(-c4ccc(Cl)cc4)c3C2)CC1` [Cpd 83, 2-(1,3-Benzodioxol-4-yl)-3-(4-chlorophenyl)-5-[(4-methylpiperidin-1-yl)sulfonyl]-2,4,5,6-tetrahydropyrrolo[3,4-c]pyrazole] were, in that order, 92%, 0.02 µM, 27% and 12%.
Take `CCCC(C)S(=O)(=O)N1Cc2nn(-c3ccc(C)cc3OC)c(-c3ccc(Cl)cc3)c2C1` (stereo not shown) [Cpd 76, 3-(4-Chlorophenyl)-2-(2-methoxy-4-methylphenyl)-5-[(1-methylbutyl)sulfonyl]-2,4,5,6-tetrahydropyrrolo[3,4-c]pyrazole]: in assay [1], the inhibition at 0.33 µM stood at 90% and the IC50 amounted to 0.021 µM. In addition, the inhibition at 1 µM on N-type calcium channel (setting [2]) was found to be 30%. Further, on N-type calcium channel (setting [3]), the inhibition at 1 µM is -3%.
Regarding `COc1ccccc1-n1nc2c(c1-c1ccc(Cl)cc1)CN(S(=O)(=O)C1CCCCC1)C2` [Cpd 37, 3-(4-Chlorophenyl)-5-(cyclohexylsulfonyl)-2-(2-methoxyphenyl)-2,4,5,6-tetrahydropyrrolo[3,4-c]pyrazole], the IC50 in assay [1] is 0.016 µM. The inhibition at 0.25 µM at N-type calcium channel (setting [4]) is 73%; at N-type calcium channel (setting [5]) it was 61%.
Turning to `CN(C)S(=O)(=O)N1Cc2nn(-c3ccccc3OCC(F)F)c(-c3ccc(Cl)cc3)c2C1` [Cpd 95, 3-(4-Chlorophenyl)-2-[2-(2,2-difluoroethoxy)phenyl]-N,N-dimethyl-2,6-dihydropyrrolo[3,4-c]pyrazole-5(4H)-sulfonamide], in assay [1], the inhibition at 0.33 µM was found to be 79% and the half-maximal inhibitory concentration (IC50) was 0.05 µM. The inhibition at 0.1 µM on N-type calcium channel (setting [4]) was 23%. Also, the inhibition at 0.1 µM at N-type calcium channel (setting [5]) was -4%.
In the case of `COc1ccccc1-n1nc2c(c1-c1ccc(Cl)cc1)CN(S(C)(=O)=O)C2` [Cpd 30, 3-(4-Chlorophenyl)-2-(2-methoxyphenyl)-5-(methylsulfonyl)-2,4,5,6-tetrahydropyrrolo[3,4-c]pyrazole], in assay [1], the IC50 was found to be 0.021 µM. Moreover, the inhibition at 1 µM was determined as 49% at N-type calcium channel (setting [2]) and 28% at N-type calcium channel (setting [3]).
`COc1cc(Cl)ccc1-n1nc2c(c1-c1ccc(Cl)cc1)CN(S(=O)(=O)C(C)C)C2` [Cpd 64, 2-(4-Chloro-2-methoxyphenyl)-3-(4-chlorophenyl)-5-[(1-methylethyl)sulfonyl]-2,4,5,6-tetrahydropyrrolo[3,4-c]pyrazole]: in assay [1], the inhibition at 0.33 µM was found to be 86% and the IC50 worked out at 0.033 µM. Further, at N-type calcium channel (setting [4]), the inhibition at 0.1 µM came out at 24%. Also, the inhibition at 0.1 µM on N-type calcium channel (setting [5]) is 12%.
On to `COc1ccccc1-n1nc2c(c1-c1ccc(Cl)cc1)CN(S(=O)(=O)CCNS(C)(=O)=O)C2` [Cpd 44, N-(2-{[3-(4-Chlorophenyl)-2-(2-methoxyphenyl)-2,6-dihydropyrrolo[3,4-c]pyrazol-5(4H)-yl]sulfonyl}ethyl)methanesulfonamide], for which the IC50 in assay [1] was 0.009 µM. Further, the inhibition at 0.1 µM is -5% on N-type calcium channel (setting [4]) and -2% at N-type calcium channel (setting [5]).
The like results for `CCOc1ccccc1-n1nc2c(c1-c1ccc(Cl)cc1)CN(S(C)(=O)=O)C2` [Cpd 49, 3-(4-Chlorophenyl)-2-(2-ethoxyphenyl)-5-(methylsulfonyl)-2,4,5,6-tetrahydropyrrolo[3,4-c]pyrazole] were, in that order, 0.002 µM, 22% and 18%.
